Data taken from PubChem BioAssay (NCI).
Where “and” joins values, the source holds several entries; their conditions need not be identical. Identical values can stand only once.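 Interpolation was linear, between the two tested concentrations surrounding the appropriate level; five concentrations were tested over 48 hours in 96-well plates. The concentration for 50% growth inhibition is given as GI50. TGI: concentration producing complete growth inhibition.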

Assays:
Assay in all cases: inhibition of tumour cell growth, NCI panel, 48 h
786-0 renal = test system: 786-0 renal
HCT-15 colon = test system: HCT-15 colon
NCI/ADR-RES ovarian = test system: NCI/ADR-RES ovarian
OVCAR-3 ovarian = test system: OVCAR-3 ovarian
SK-MEL-28 melanoma = test system: SK-MEL-28 melanoma
UO-31 renal = test system: UO-31 renal
PC-3 prostate = test system: PC-3 prostate
SR leukemia = test system: SR leukemia

| Compound | GI50 (786-0 renal) | TGI (786-0 renal) | GI50 (HCT-15 colon) | TGI (HCT-15 colon) | GI50 (NCI/ADR-RES ovarian) | TGI (NCI/ADR-RES ovarian) | GI50 (OVCAR-3 ovarian) | TGI (OVCAR-3 ovarian) | GI50 (SK-MEL-28 melanoma) | TGI (SK-MEL-28 melanoma) | GI50 (UO-31 renal) | TGI (UO-31 renal) | GI50 (PC-3 prostate) | TGI (PC-3 prostate) | GI50 (SR leukemia) | TGI (SR leukemia) |
| --- | --- | --- | --- | --- | --- | --- | --- | --- | --- | --- | --- | --- | --- | --- | --- | --- |
| S=c1nc(-c2ccccc2)oc(=NC2CCCCC2)n1C1CCCCC1 | 4.46 µM | 16.2 µM | 3.35 µM | 13.5 µM | 5.01 µM | 23.4 µM | 3.54 µM | 11.3 µM | 14.3 µM | 30.2 µM | > 100 µM | > 100 µM |  |  |  |  |
| Cc1ccc2c(c1)C(=O)c1c-2n(CCCN)c(=O)c2cc([N+](=O)[O-])ccc12 | 0.0576 µM | 0.208 µM | 0.351 µM | 1.01 µM | 0.594 µM | 1.45 µM | 0.521 µM | 1.32 µM | 2.27 µM | 4.63 µM | 0.144 µM | 0.811 µM | 0.437 µM | 1.17 µM | 0.0394 µM | 0.201 µM |
| CC(=O)Oc1ccc(OC(C)=O)c2ccccc12 | 16.6 µM | 30.5 µM | 14.3 µM | 34.5 µM | 3.27 µM | 15.2 µM | 3.55 µM | 12.9 µM | 13.3 µM | 26.5 µM | 2.14 µM | 16.1 µM | 6.24 µM | 25.6 µM | 3.19 µM | 11.7 µM |
| COc1cc(-c2cc(-c3ccc(N(C)C)cc3)nc(N3CCOCC3)c2C#N)cc(OC)c1OC | 0.835 µM | 13.4 µM | 0.68 µM | 44.1 µM | 0.246 µM | > 91.4 µM | 12.9 µM | > 83.2 µM | 0.433 µM | 5.68 µM | 6.85 µM | > 60.8 µM | 2.06 µM | > 100 µM | 0.26 µM | 4.04 µM |
| Cn1c2ccccc2c(=Nc2ccccc2)c2c3ccccc3[nH]c21 | 1.33 µM | 2.63 µM | 1.51 µM | 3.49 µM | 6.75 µM | 61.2 µM |  |  | 2.3 µM | 6.17 µM | 1.93 µM | > 100 µM | 1.69 µM | 6.2 µM |  |  |
| COc1ccccc1/C=C\c1cnnc2ccccc12 |  | > 10 µM |  | > 10 µM |  | > 10 µM |  | > 10 µM |  | > 10 µM |  |  |  | > 10 µM |  |  |
| COc1ccc(C2OC(=O)c3c2ccc2ccccc32)c(C)c1 (stereo not given) |  | 18.1 µM |  | 19.9 µM |  |  |  |  |  | > 100 µM |  | > 100 µM |  | 97.1 µM |  | > 100 µM |
| Cn1nc(C(F)(F)F)c(-c2ccc(Cl)c(C(F)(F)F)c2)c1-c1ccc(OCc2ccc(Cl)cc2)cc1O | 1.8 µM | 7.12 µM | 1.6 µM | 6 µM | 1.56 µM | 4.99 µM | 1.66 µM | 5.8 µM | 1.88 µM | 7.33 µM | 1.26 µM | 4.39 µM | 1.66 µM | 6.68 µM | 2.06 µM | 7.34 µM |
| Nc1[nH]c(=O)ncc1F |  | > 100 µM |  | > 100 µM |  | > 100 µM |  | > 100 µM |  | > 100 µM |  | > 100 µM |  | > 100 µM |  | > 100 µM |
| CC(CN=C(CC(=O)c1ccc(Br)cc1)c1ccccc1)N=C(CC(=O)c1ccc(Br)cc1)c1ccccc1 (stereo not given) | 4.2 µM | > 100 µM | 43.6 µM | > 100 µM | 14.2 µM | > 100 µM |  | 14.7 µM | > 100 µM | > 100 µM | 1.66 µM | > 100 µM | 29.4 µM | > 100 µM |  |  |
| Nc1ncnc2c1c(C(F)(F)F)cn2[C@@H]1O[C@H](CO)[C@@H](O)[C@H]1O | 2.15 µM | > 100 µM | 0.197 µM | > 100 µM | 0.363 µM | > 100 µM | 0.398 µM | > 100 µM | 1.29 µM | 6.13 µM | 0.928 µM | 5.01 µM | 0.0725 µM |  | 0.341 µM |  |
| CCOC1OCCCC1Br (stereo not given) |  | > 100 µM |  | > 100 µM |  | > 100 µM |  | > 100 µM |  | > 100 µM |  | > 100 µM |  | > 100 µM |  | > 100 µM |
| COc1ccc(-c2ccc(/C=C/C(=O)NO)cc2)cc1 | 0.99 µM | 3.79 µM | 0.468 µM | 58.7 µM | 0.533 µM | 3.22 µM | 0.518 µM | 2.76 µM | 2.45 µM | 13 µM | 0.281 µM | 2.14 µM | 1.09 µM | 12.3 µM | 0.378 µM | > 20.6 µM |
| CN(C)CCCNc1nn2c(=O)c3ccccc3nc2c2ccccc12 | 10.9 µM | 23.7 µM | 7.05 µM | 30.2 µM | 12.3 µM | 35.5 µM | 10.5 µM | 26.4 µM | 15.8 µM | 29.3 µM | 3.55 µM | 18.2 µM | 11.7 µM | 36.9 µM | 2.55 µM | 8.74 µM |
| C[C@]12O[C@H](C[C@]1(O)CO)n1c3ccccc3c3c4c(c5c6ccccc6n2c5c31)CNC4=O | 0.197 µM and 0.213 µM | 1.45 µM and 1.89 µM | 0.0605 µM and 0.0598 µM | 5.91 µM and 9.52 µM | 0.87 µM and 1.37 µM | 5.15 µM and 7.26 µM | 0.37 µM and 0.391 µM | 3.31 µM and 2.76 µM | 0.0851 µM and 0.0854 µM | 1.12 µM and 1.36 µM | 0.0238 µM and 0.0286 µM | 1.08 µM and 1.29 µM | 0.0846 µM and 0.133 µM | > 5.89 µM and 3.9 µM | 0.0203 µM and 0.022 µM | 0.474 µM and 0.24 µM |
| Oc1ccc2oc3ncc(Cl)c(-c4ccccc4)c3c2c1 | 0.0939 µM | > 100 µM | > 100 µM | > 100 µM | > 100 µM | > 100 µM | > 100 µM | > 100 µM | > 100 µM | > 100 µM | > 100 µM | > 100 µM | > 100 µM | > 100 µM |  |  |
| COC(=O)/C=C/C(=O)C1C(C(=O)OC)C2(C(=O)OC)CCC1(C(=O)OC)N2 (stereo not given) |  | > 100 µM |  | > 100 µM |  |  |  | > 100 µM |  | > 100 µM |  | > 100 µM |  |  |  | > 100 µM |
| O=C(c1ccccc1)C1C(C(=O)c2ccccc2)N1Cc1ccccc1 (stereo not given) |  | > 100 µM |  | > 100 µM |  | > 100 µM |  | 99.2 µM |  | > 100 µM |  | > 100 µM |  | > 100 µM |  |  |
| O=C(O)c1c(O)c2cc(Br)ccc2oc1=O |  | > 100 µM |  | > 100 µM |  | > 100 µM |  | > 100 µM |  | > 100 µM |  |  |  | > 100 µM |  | > 100 µM |
